According to patent US12384797B2, “Thioeno[3,2-b] pyridin-7-amine compounds for treating familial dysautonomia” (PTC THERAPEUTICS, INC., priority 2019, dated 2025):

These compounds were tested on Elongator complex protein 1 (ELP1, also referred to as IKBKAP) (assay: IKBKAP-HTRF assay (IKBKAP protein in lysates of FD patient-derived fibroblasts)). Settings: 48 hours incubation, 7-point concentration curve.
Type: cell-based, human
Method: The assay is used for the quantitative determination of Elongator complex protein 1 (ELP1, also referred to as IKBKAP) concentration in cell lysates using the HTRF® (Homogeneous Time-Resolved Fluorescence) technology. IKBKAP is detected in a sandwich HTRF assay by use of an anti-IKAP antibody labeled with a donor and an anti-IKAP antibody labeled with an acceptor.
Cells were thawed and incubated in DMEM-10% FBS for 72 hours. Cells were trypsinized, counted, and re-suspended to a concentration of 50,000 cells/mL in DMEM-10% FBS. A 199 μL aliquot of the cell suspensions were plated at 10,000 cells per well in a 96 well microtiter plate and incubated for 3 to 5 hours. […] Test compounds were serially diluted 3.16-fold in 100% DMSO to generate a 7-point concentration curve. A 1 μL aliquot of 200× compound solution was transferred to cell-containing wells, and cells were incubated for 48 hours in a cell culture incubator (37° C., 5% CO2, 100% relative humidity). Triplicate samples were set up for each compound concentration. After 48 hours, the supernatant was removed from the cells and 50 μL of the 1×LB4 lysis buffer, containing protease inhibitors, was added to the cells and incubated with shaking at room temperature for 1 hour. A 36 μL aliquot of this lysate was subsequently transferred to the 384-well plate containing 4 μL of the antibody solution (1:50 dilution of anti IKAP d2 and anti-IKAP K(9+8) in detection buffer). The 384-well plate was then centrifuged for 1 minute to bring the solutions to the bottom of the plate and incubated overnight at 4° C. Fluorescence for each well of the plate at 665 nm and 620 nm was measured was on the EnVision plate reader (Perkin Elmer). The ΔF for each sample is calculated by:
[formula] wherein Signal is the normalized fluorescence for each sample well and Blank is the average normalized average fluorescence for the Blank control wells.
The maximum fold increase (MFI) in IKBKAP protein abundance for compounds of Formula (I) or a form thereof relative to the vehicle control are provided in Table 1. MFI was calculated by dividing the ΔF value for each sample well by the sample ΔF for the vehicle control wells.
The EC2x for IKBKAP protein expression obtained from the 7-point concentration curve generated for each test compound according to the protocol in Biological Example 1 are also provided in Table 1. The term “EC2x for IKBKAP protein expression” is defined as the concentration of test compound that is effective in producing two times the amount of IKBKAP protein in a FD patient cell compared to the amount produced from the DMSO vehicle control.

| Compound | EC2x for IKBKAP protein expression (concentration producing two times the amount of IKBKAP protein vs DMSO vehicle control) | MFI (maximum fold increase in IKBKAP protein abundance relative to the vehicle control) |
| --- | --- | --- |
| C[C@H](N)C(O)c1sc2c(NCc3cccs3)cc(Cl)nc2c1Br (stereo partly drawn) [Compound 155, (2S)-2-amino-1-(3-bromo-5-chloro-7-{[(thiophen-2-yl)methyl]amino}thieno[3,2-b]pyridin-2-yl)propan-1-ol] | * (An EC2x>1 μM is indicated by one star (*)) | * (An MFI≤1.9 is indicated by one star (*)) |
| CC(C)C[C@H](N)Cc1sc2c(NCc3nccs3)cc(Cl)nc2c1Br [Compound 62, 2-[(2S)-2-amino-4-methylpentyl]-3-bromo-5-chloro-N-[(1,3-thiazol-2-yl)methyl]thieno[3,2-b]pyridin-7-amine] | ***** (≤0.005 μM is indicated by five stars (*****)) | ***** (>4.9 is indicated by five stars (*****)) |
| C[C@H](N)Cc1sc2c(NCc3cccs3)cc(Cl)nc2c1C#N [Compound 110, 2-[(2S)-2-aminopropyl]-5-chloro-7-{[(thiophen-2-yl)methyl]amino}thieno[3,2-b]pyridine-3-carbonitrile] | ***** (≤0.005 μM is indicated by five stars (*****)) | **** (between >3.9 and ≤4.9 is indicated by four stars (****)) |
| Cc1c(C[C@@H](N)CS(C)(=O)=O)sc2c(NCc3ccco3)cc(Cl)nc12 [Compound 108, 2-[(2R)-2-amino-3-(methanesulfonyl)propyl]-5-chloro-N-[(furan-2-yl)methyl]-3-methylthieno[3,2-b]pyridin-7-amine] | **** (between >0.005 μM and ≤0.02 μM is indicated by four stars (****)) | ***** (>4.9 is indicated by five stars (*****)) |
| Cc1c(C(C)(O)CO)sc2c(NCc3ccco3)cc(Cl)nc12 (stereo not drawn) [Compound 147, 2-(5-chloro-7-{[(furan-2-yl)methyl]amino}-3-methylthieno[3,2-b]pyridin-2-yl)propane-1,2-diol] | *** (between >0.02 μM and ≤0.5 μM is indicated by three stars (***)) | ** (between >1.9 and ≤2.9 is indicated by two stars (**)) |
| C[S+]([O-])C[C@H](N)Cc1sc2c(NCc3ccco3)cc(Cl)nc2c1Cl (stereo partly drawn) [Compound 167, [(2R)-2-amino-3-(3,5-dichloro-7-{[(furan-2-yl)methyl]amino}thieno[3,2-b]pyridin-2-yl)propyl](methyl)sulfaniumolate] | ***** (≤0.005 μM is indicated by five stars (*****)) | ***** (>4.9 is indicated by five stars (*****)) |
| C[C@H](N)Cc1sc2c(NCc3ccco3)cc(Cl)nc2c1C1CC1 [Compound 51, 2-[(2S)-2-aminopropyl]-5-chloro-3-cyclopropyl-N-[(furan-2-yl)methyl]thieno[3,2-b]pyridin-7-amine] | ***** (≤0.005 μM is indicated by five stars (*****)) | ***** (>4.9 is indicated by five stars (*****)) |
| Cc1c(C[C@@H](N)C(=O)Nc2ccnn2C)sc2c(NCc3ccco3)cc(Cl)nc12 [Compound 145, 3-(5-chloro-7-{[(furan-2-yl)methyl]amino}-3-methylthieno[3,2-b]pyridin-2-yl)-N-(1-methyl-1H-pyrazol-5-yl)-D-alaninamide] | *** (between >0.02 μM and ≤0.5 μM is indicated by three stars (***)) | ***** (>4.9 is indicated by five stars (*****)) |
| 2-[(2R)-2-amino-3-fluoropropyl]-5-chloro-3-methyl-N-[(1,3-thiazol-2-yl)methyl]thieno[3,2-b]pyridin-7-amine [Compound 69] | ***** (≤0.005 μM is indicated by five stars (*****)) | ***** (>4.9 is indicated by five stars (*****)) |
| Cc1c([C@H](C)[C@H](C)N)sc2c(NCc3ccco3)cc(Cl)nc12 [Compound 150, 2-[(2R,3S)-3-aminobutan-2-yl]-5-chloro-N-[(furan-2-yl)methyl]-3-methylthieno[3,2-b]pyridin-7-amine] | ***** (≤0.005 μM is indicated by five stars (*****)) | ***** (>4.9 is indicated by five stars (*****)) |
| Cc1c(C[C@H](C)N)sc2c(NCc3ccncc3F)cc(Cl)nc12 [Compound 35, 2-[(2S)-2-aminopropyl]-5-chloro-N-[(3-fluoropyridin-4-yl)methyl]-3-methylthieno[3,2-b]pyridin-7-amine] | ***** (≤0.005 μM is indicated by five stars (*****)) | ***** (>4.9 is indicated by five stars (*****)) |
| Cc1c(NC[C@@H](C)N)sc2c(NCc3cccs3)cc(Cl)nc12 [Compound 164, N^2-[(2R)-2-aminopropyl]-5-chloro-3-methyl-N^7-[(thiophen-2-yl)methyl]thieno[3,2-b]pyridine-2,7-diamine] | *** (between >0.02 μM and ≤0.5 μM is indicated by three stars (***)) | *** (between >2.9 and ≤3.9 is indicated by three stars (***)) |
| C[C@H](N)C(F)(F)c1sc2c(NCc3cccs3)cc(Cl)nc2c1Cl [Compound 132, 2-[(2S)-2-amino-1,1-difluoropropyl]-3,5-dichloro-N-[(thiophen-2-yl)methyl]thieno[3,2-b]pyridin-7-amine] | **** (between >0.005 μM and ≤0.02 μM is indicated by four stars (****)) | ***** (>4.9 is indicated by five stars (*****)) |
| Clc1cc(NCc2ccco2)c2scc(Br)c2n1 [Compound 7, 3-bromo-5-chloro-N-[(furan-2-yl)methyl]thieno[3,2-b]pyridin-7-amine] | *** (between >0.02 μM and ≤0.5 μM is indicated by three stars (***)) | ***** (>4.9 is indicated by five stars (*****)) |
| CC[C@H](N)Cc1sc2c(NCc3nccs3)cc(Cl)nc2c1Cl [Compound 82, 2-[(2S)-2-aminobutyl]-3,5-dichloro-N-[(1,3-thiazol-2-yl)methyl]thieno[3,2-b]pyridin-7-amine] | ***** (≤0.005 μM is indicated by five stars (*****)) | ***** (>4.9 is indicated by five stars (*****)) |
| Cc1c(CCN)sc2c(NCc3ccco3)cc(Cl)nc12 [Compound 152, 2-(2-aminoethyl)-5-chloro-N-[(furan-2-yl)methyl]-3-methylthieno[3,2-b]pyridin-7-amine] | *** (between >0.02 μM and ≤0.5 μM is indicated by three stars (***)) | ** (between >1.9 and ≤2.9 is indicated by two stars (**)) |
| CNCc1cc2nc(Cl)cc(NCc3ccco3)c2s1 [Compound 25, 5-chloro-N-[(furan-2-yl)methyl]-2-[(methylamino)methyl]thieno[3,2-b]pyridin-7-amine] | *** (between >0.02 μM and ≤0.5 μM is indicated by three stars (***)) | *** (between >2.9 and ≤3.9 is indicated by three stars (***)) |
| COc1csc2c(NCc3ccco3)cc(Cl)nc12 [Compound 137, 5-chloro-N-[(furan-2-yl)methyl]-3-methoxythieno[3,2-b]pyridin-7-amine] | *** (between >0.02 μM and ≤0.5 μM is indicated by three stars (***)) | ***** (>4.9 is indicated by five stars (*****)) |
